Laboratory results: the NIST ThermoML archive (doi:10.1016/j.tca.2012.04.001)

Tests used:
[1] = 101.33 kPa, Liquid, Vibrating tube method
[2] = xn = mol fraction of the nth substance listed; settings: 101 kPa, Liquid, Vibrating tube method

CCCCCCC [heptane]
[1]
Settings	mass density [kg/m3]
288.15 K	688.588
303.15 K	675.838
313.15 K	665.838

CCCC(C)=O [pentan-2-one] + CCCCCCC
mass density [kg/m3], [2]
Settings	288.15 K	303.15 K	313.15 K
x2 = 0.0562	801.549	787.145	777.44
x2 = 0.1047	793.314	778.964	769.309
x2 = 0.1946	778.848	764.618	755.031
x2 = 0.2463	770.971	756.828	747.271
x2 = 0.3006	763.126	748.98	739.521
x2 = 0.312	761.486	747.38	737.93
x2 = 0.3664	754.046	740.019	730.578
x2 = 0.4233	746.601	732.618	723.231
x2 = 0.4921	738.067	724.274	714.996
x2 = 0.5566	730.511	716.874	707.632
x2 = 0.6001	725.625	712.061	702.877
x2 = 0.7003	715.045	701.616	692.572
x2 = 0.7526	709.893	696.524	687.536
x2 = 0.8233	703.177	689.947	681.074
x2 = 0.8918	697.119	684.045	675.297
x2 = 0.95	692.408	679.462	670.763

CCCCCl [1-chlorobutane] + CCCCCCC
mass density [kg/m3], [2]
Settings	288.15 K	303.15 K	313.15 K
x1 = 0.0407	694.279	681.416	672.687
x1 = 0.0779	699.652	686.682	677.87
x1 = 0.1497	710.416	697.174	688.219
x1 = 0.2169	720.981	707.546	698.49
x1 = 0.2496	726.25	712.73	703.568
x1 = 0.2565	727.4	713.798	704.618
x1 = 0.2999	734.714	720.999	711.752
x1 = 0.363	745.784	731.835	722.416
x1 = 0.4023	752.916	738.839	729.286
x1 = 0.5009	771.635	757.206	747.426
x1 = 0.5052	772.539	758.088	748.294
x1 = 0.5987	791.61	776.768	766.715
x1 = 0.7138	817.052	801.757	791.398
x1 = 0.7493	825.378	809.928	799.44
x1 = 0.8009	837.92	822.176	811.608
x1 = 0.8875	860.284	844.077	833.14
x1 = 0.9476	876.694	860.27	849.181

CCCCCl [1-chlorobutane] + CCC(C)=O
mass density [kg/m3], [2]
Settings	288.15 K	303.15 K	313.15 K
x1 = 0.0603	815.629	799.819	789.16
x1 = 0.102	819.225	803.373	792.657
x1 = 0.1968	827.479	811.507	800.7
x1 = 0.2964	835.868	819.774	808.881
x1 = 0.4017	844.704	828.487	817.514
x1 = 0.4502	848.687	832.432	821.402
x1 = 0.5138	853.847	837.516	826.466
x1 = 0.5467	856.509	840.156	829.081
x1 = 0.6451	864.357	847.919	836.788
x1 = 0.6988	868.609	852.133	840.975
x1 = 0.7994	876.429	859.878	848.676
x1 = 0.8296	878.808	862.217	850.983
x1 = 0.9037	884.435	867.832	856.591
x1 = 0.9336	886.734	870.09	858.856

CCC(C)=O [butanone]
[1]
Settings	mass density [kg/m3]
288.15 K	810.328
303.15 K	794.629
313.15 K	784.008

CCCC(C)=O [pentan-2-one] + CCCCCl
mass density [kg/m3], [2]
Settings	288.15 K	303.15 K	313.15 K
x2 = 0.0725	816.977	802.287	792.387
x2 = 0.1054	819.501	804.742	794.796
x2 = 0.1321	821.521	806.72	796.726
x2 = 0.2299	829.083	814.071	803.941
x2 = 0.2994	834.489	819.331	809.089
x2 = 0.3515	838.598	823.323	813
x2 = 0.4369	845.4	829.942	819.494
x2 = 0.493	849.874	834.295	823.772
x2 = 0.5816	857.018	841.242	830.585
x2 = 0.6518	862.707	846.788	836.036
x2 = 0.6948	866.208	850.202	839.378
x2 = 0.749	870.664	854.538	843.633
x2 = 0.8055	875.345	859.097	848.116
x2 = 0.8359	877.911	861.609	850.574
x2 = 0.8866	882.185	865.757	854.665
x2 = 0.9145	884.566	868	856.9

CCCC(C)=O [pentan-2-one]
[1]
Settings	mass density [kg/m3]
288.15 K	811.491
303.15 K	796.955
313.15 K	787.16

CCCCCl [1-chlorobutane]
[1]
Settings	mass density [kg/m3]
288.15 K	891.747
303.15 K	875.099
313.15 K	863.833

CCC(C)=O [butanone] + CCCCCCC
mass density [kg/m3], [2]
Settings	288.15 K	303.15 K	313.15 K
x2 = 0.0488	799.693	784.166	773.658
x2 = 0.0875	791.829	776.433	766.011
x2 = 0.1976	771.92	756.87	746.674
x2 = 0.2409	764.837	749.92	739.808
x2 = 0.2995	755.954	741.212	731.216
x2 = 0.3726	745.725	731.183	721.184
x2 = 0.444	736.645	722.313	712.588
x2 = 0.4708	733.346	719.166	709.492
x2 = 0.5132	728.532	714.398	704.806
x2 = 0.5941	719.999	706.083	696.646
x2 = 0.7024	709.67	696.076	686.851
x2 = 0.7471	705.937	692.464	683.324
x2 = 0.8016	701.621	688.317	679.294
x2 = 0.8341	699.194	686.007	677.044
x2 = 0.896	694.863	681.831	672.997
x2 = 0.9545	691.133	678.282	669.575
